The results in this text go back to patent publication US20120225834A1, “OCULAR IONTOPHORESIS OF CHARGED MICELLES CONTAINING BIOACTIVE AGENTS” (EYEGATE PHARMACEUTICALS, INC., priority 2009, published 2012).

The series in a line: Solubilization of sparingly soluble compounds using quaternary ammonium cationic surfactants (dissolved concentration by HPLC). The format is physicochemical. The method, then: Aqueous solubility of dexamethsone, a corticosteroid, and natamycin, an antifungal agent, was increased by using quaternary ammonium cationic surfactants cetyltrimethylammonium bromide (CTAB), ditetradecyldimethylammonium bromide (TMAB), and dioctadecyldimethylammonium chloride (OMAC). Stock solutions of surfactants were prepared by adding water to the surfactant and mixing under low shear at room temperature. The stock solution of CTAB and TMAB was prepared at 10 mg/mL and 20 mg/mL in WFI (water for injection) whereas the stock solution of OMAC was only prepared at 10 mg/mL due to gel formation at 20 mg/mL. Surfactant solutions with different concentrations were then prepared by diluting the corresponding stock solution with WFI.
Dexamethasone (or natamycin) was added to each surfactant solution in such quantity to precipitate. The mixture was sonicated for one hour in a sonication water tank and then stirred overnight.
Dissolved dexamethasone (or natamycin) concentration was analyzed on HPLC following two different procedures: (1) An aliquot of the mixture was centrifuged at 10 k RPM (9.3 k×g relative gravitational force) for 30 min. Clear supernatant was then analyzed on HPLC; (2) An aliquot of the mixture was filtered through a syringe filter (Acrodisc®, Supor membrane, 0.2 micrometers), and then analyzed on HPLC. […]

Like-named read-outs stand apart in the source and are kept apart here.

As to `C[C@@H]1C[C@H]2[C@@H]3CCC4=CC(=O)C=C[C@]4(C)[C@@]3(F)[C@@H](O)C[C@]2(C)[C@@]1(O)C(=O)CO` [dexamethsone, dexamethasone], the Aqueous solubility result (in aqueous solutions of quaternary ammonium cationic surfactants CTAB, TMAB and OMAC in WFI, sonicated one hour, stirred overnight, HPLC after centrifugation or 0.2 micrometer filtration) is recorded as “increased”.

As for `C[C@@H]1C/C=C/C=C/C=C/C=C/[C@H](O[C@@H]2O[C@H](C)[C@@H](O)[C@H](N)[C@@H]2O)C[C@@H]2O[C@](O)(C[C@@H](O)C[C@H]3O[C@@H]3/C=C/C(=O)O1)C[C@H](O)[C@H]2C(=O)O` [natamycin], the Aqueous solubility entry was “increased”.
